Here are results for nine molecules from ChEMBL document CHEMBL2417480, “Bioactive polyprenylated acylphloroglucinol derivatives from Hypericum cohaerens” (J Nat Prod, 2013).

By IC50 is commonly meant the concentration that gives 50% inhibition. Higher therefore signals weaker potency in that assay.

In one assay the test system is HL-60. The assay is described as follows: Cytotoxicity against human HL60 cells after 48 hrs by MTT assay. The note with it: HL-60, 48 h. Background: Tetrazolium assays rely on reduction of a dye to a coloured formazan, in cell work by metabolically active cells.
A further assay has as its system SMMC-7721. Description: Cytotoxicity against human SMMC7721 cells after 48 hrs by MTT assay. The note with it: SMMC-7721, 48 h.
The test system of another assay is SW480. Description: Cytotoxicity against human SW480 cells after 48 hrs by MTT assay. The note with it: SW480, 48 h.
For the next assay, the system named is MCF7. The assay is described as follows: Cytotoxicity against human MCF7 cells after 48 hrs by MTT assay. The note with it: MCF7, 48 h.
A further assay concerns A549. The assay is described as follows: Cytotoxicity against human A549 cells after 48 hrs by MTT assay. The note with it: A549, 48 h.

For `CCC(C)C(=O)[C@@]12C(=O)C3=C(OC(C)(C)C=C3)[C@@](CC=C(C)C)(C[C@H](CC=C(C)C)[C@@]1(C)CCC=C(C)C)C2=O` (stereo partly drawn), the IC50 with HL-60, with SMMC-7721, in the assay on SW480, with MCF7 and in the assay with A549 was > 20 µM in each case.
For the molecule `CC(C)=CCC[C@]1(C)[C@@H](CC=C(C)C)C[C@]23C[C@@H](C(C)C)OC2=C(CC=C(C)C)C(=O)[C@@]1(C(=O)C(C)C)C3=O`, the IC50 in the assay on HL-60, in the assay with SMMC-7721, in the assay on SW480, with MCF7 and in the assay with A549 was > 20 µM in each case.
Take `CCC(C)C(=O)[C@@]12C(=O)C(CC=C(C)C)=C3O[C@@H](C(C)(C)O)C[C@]3(C[C@H](CC=C(C)C)[C@@]1(C)CCC=C(C)C)C2=O` (stereo partly drawn): the IC50 in the assay on HL-60, in the assay on SMMC-7721, in the assay with SW480, in the assay on MCF7 and in the assay on A549 was > 20 µM in each case.
For `CC(C)=CCC[C@]1(C)[C@@H](CC=C(C)C)C[C@]23C[C@H](C(C)(C)O)OC2=C(CC=C(C)C)C(=O)[C@@]1(C(=O)C(C)C)C3=O`, the IC50 with HL-60, with SMMC-7721, in the assay with SW480, with MCF7 and in the assay with A549 was > 20 µM throughout.
As to `CC(C)=CCC[C@]1(C)[C@@H](CC=C(C)C)C[C@]23C[C@@H](C(C)(C)O)OC2=C(C[C@@H]2OC(C)(C)[C@@H](CO)C2(C)C)C(=O)[C@@]1(C(=O)C(C)C)C3=O`, the IC50 with HL-60 was 5.8 µM; in the assay with SMMC-7721, > 20 µM; in the assay on SW480 it was 15.6 µM; in the assay on MCF7 it was 10.2 µM; in the assay on A549 it was 11.3 µM.
Consider `CC(C)=CCC[C@]1(C)[C@@H](CC=C(C)C)C[C@]23C[C@@H](C(C)(C)O)OC2=C(C[C@@H]2OC(C)(C)[C@@H](CO)C2(C)C)C(=O)[C@@]1(C(=O)c1ccccc1)C3=O`, for which the IC50 in the assay with HL-60 is 12.6 µM; in the assay on SMMC-7721, 8.2 µM; in the assay on SW480 it was 9.2 µM; with MCF7, > 20 µM; in the assay with A549, 17.9 µM.
Consider `CC(C)=CCC[C@]1(C)[C@@H](CC=C(C)C)C[C@]23C[C@@H](C(C)(C)O)OC2=C(C[C@H]2OC(C)(C)[C@H](CO)C2(C)C)C(=O)[C@@]1(C(=O)C(C)C)C3=O`, for which the IC50 was 8.8 µM in the assay with HL-60; 9.5 µM in the assay with SMMC-7721; 7.4 µM in the assay on SW480; 9.3 µM with MCF7; 5.6 µM with A549.
The matching figures for `CC(C)=CCC[C@]1(C)[C@@H](CC=C(C)C)C[C@]23C[C@@H](C(C)C)OC2=C(CC=C(C)C)C(=O)[C@@]1(C(=O)c1ccccc1)C3=O`: > 20 µM, > 20 µM, > 20 µM, > 20 µM and > 20 µM.
In the case of `CC(=O)O[C@H]1C(=O)[C@@]2(C)[C@H]([C@H](OC(=O)c3ccccc3)[C@]3(O)C[C@H](OC(=O)[C@H](O)[C@@H](NC(=O)c4ccccc4)c4ccccc4)C(C)=C1C3(C)C)[C@]1(OC(C)=O)CO[C@@H]1C[C@@H]2O` [PACLITAXEL], the IC50 with HL-60, in the assay on SMMC-7721 and in the assay with MCF7 was < 0.008 µM each time.
